Values quoted from earlier work as cited in patent publication US9486545B2, “Method of screening for colon cancer using biomarkers” (H. Lee Moffitt Cancer Center and Research Institute, Inc., priority 2011, dated 2016).

System: TLR4

For `CCOC(=O)C1=CCCC[C@H]1S(=O)(=O)Nc1ccc(F)cc1Cl` [TAK 242, ethyl (6R)-6-[N-(2-Chloro-4-fluorophenyl)sulfamoyl]cyclohex-1-ene-1-carboxylate], the IC50 is listed as 3.2 nM.
